The text below walks through data of patent publication US20140336136A1, “Carboxylated Stilbenes For Activating AMPK And Sirtuins” (Rahn AG, priority 2013, published 2014).

The target of one data set is T1, human sirtuin-1 (Sirt1) (Homo sapiens, UniProt Q96EB6).
T1 construct: purchased BioMol, Hamburg, Germany
T1 sequence (Q96EB6 1-747): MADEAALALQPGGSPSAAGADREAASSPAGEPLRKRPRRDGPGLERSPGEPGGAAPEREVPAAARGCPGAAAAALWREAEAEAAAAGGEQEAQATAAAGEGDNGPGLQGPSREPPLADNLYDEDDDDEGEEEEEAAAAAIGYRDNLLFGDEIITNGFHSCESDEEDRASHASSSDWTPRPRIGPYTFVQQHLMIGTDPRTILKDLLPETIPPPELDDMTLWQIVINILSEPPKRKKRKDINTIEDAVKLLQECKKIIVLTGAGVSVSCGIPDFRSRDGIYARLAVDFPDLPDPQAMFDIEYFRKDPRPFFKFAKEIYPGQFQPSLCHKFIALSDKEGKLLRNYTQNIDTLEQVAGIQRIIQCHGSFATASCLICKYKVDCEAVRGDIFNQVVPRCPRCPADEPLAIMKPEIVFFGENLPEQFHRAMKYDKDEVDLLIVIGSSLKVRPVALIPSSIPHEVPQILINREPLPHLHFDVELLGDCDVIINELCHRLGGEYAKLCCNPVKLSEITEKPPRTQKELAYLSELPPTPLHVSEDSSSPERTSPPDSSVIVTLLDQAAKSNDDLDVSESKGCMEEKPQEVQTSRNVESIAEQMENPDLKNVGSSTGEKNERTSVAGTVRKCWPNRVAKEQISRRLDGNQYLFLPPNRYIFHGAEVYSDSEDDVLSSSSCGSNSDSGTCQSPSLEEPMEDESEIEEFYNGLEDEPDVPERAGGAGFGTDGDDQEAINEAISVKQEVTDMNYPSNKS
The experiment in a line: SIRT1 Fluorimetric Drug Discovery Kit, Sirt1 activation. Particulars: for Fold increase in sirtl activity versus control: 10 μM, control = trans-resveratrol. It is filed as biochemical. As for the experimental part:
Compounds were tested for Sirt1 activation using the SIRT1 Fluorimetric Drug Discovery Kit (BioMol, Hamburg, Germany), Testing was carried out in dubplicate following the manufacturer's instructions. Assay medium: 50 mM Tris-HCl pH 8.0, 137 mM NaCl, 2.7 mM KCl, 1 mM MgCl2, 1 mg/ml bovine serum albumin (BSA). Stock solutions of the test compounds (10 mM in DMSO) were used, yielding a final concentration of 10 μM in the assay plate. Readout was obtained by measuring the fluorescence in a microtiter plate reader (excitation: 380 nm; detection: 440 nm).
For this purpose, the test item stock solutions were diluted to yield concentrations of 0.3, 1, 3, 10 and 30 μM, respectively, in the assay, which was performed as described above. The compound of structure (I-1) was selected for this experiment.
Quantification using the GraphPad Prism 5.0 software (GraphPad Software, Inc., LaJolla, Calif., USA) led to the following EC300 values (i.e. the concentration that gave 3-times the basal response of the enzyme=activation by a factor of three):
The selectivity of the agonistic effect of the compound of formula (I-1) on different sirtuin isoforms was investigated. For this purpose, in vitro testing was performed as described in Example 1 using the respective SIRT1 Fluorimetric Drug Discovery Kit, SIRT2 Fluorimetric Drug Discovery Kit, and SIRT3 Fluorimetric Drug Discovery Kit (each from BioMol, Hamburg, Germany). […] The dose-response effect is slightly lesser on Sirt3.

Data set [1] has as its system normal human epidermal keratinocytes (NHEK). The experiment in a line: MTT reduction cytotoxicity assay in NHEK. Format: cell-based. Particulars: for viability: NHEK. As for the experimental part:
Culture conditions: 37° C., 5% CO2. Culture medium: Keratinocyte-SFM (serum-free medium) containing human recombinant epidermal growth factor (EGF 1-53) 0.25 ng/mL and bovine pituitary extract 25 μg/mL (Gibco; Cat. No. 17005-075), supplemented with gentamycin 25 μg/mL. Assay medium: Keratinocyte-SFM (Gibco; Cat. No. 10744-019), supplemented with gentamycin 25 μg/mL.
NHEK were seeded in 24-well plates (30.000 cells/well) and cultured in culture medium for 24 h and then in assay medium for another 24 h. Medium was then removed and replaced by assay medium containing the respective test compound or reference in defined concentrations.
Cytotoxicity was determined using the 3-(4,5-dimethylthiazol-2-yl)-2,5-diphenyltetrazoliumbromid (MTT) reduction assay (sse T. Mosmann (1983) J. Immunol. Methods. 65, pp. 55-63).
(Tetrazolium assays rely on reduction of a dye to a coloured formazan, in cell work by metabolically active cells.)

In the next data set the target is T2, Sirt2 (Homo sapiens, UniProt Q8IXJ6).
T2 construct: purchased BioMol, Hamburg, Germany
T2 sequence (Q8IXJ6 1-389): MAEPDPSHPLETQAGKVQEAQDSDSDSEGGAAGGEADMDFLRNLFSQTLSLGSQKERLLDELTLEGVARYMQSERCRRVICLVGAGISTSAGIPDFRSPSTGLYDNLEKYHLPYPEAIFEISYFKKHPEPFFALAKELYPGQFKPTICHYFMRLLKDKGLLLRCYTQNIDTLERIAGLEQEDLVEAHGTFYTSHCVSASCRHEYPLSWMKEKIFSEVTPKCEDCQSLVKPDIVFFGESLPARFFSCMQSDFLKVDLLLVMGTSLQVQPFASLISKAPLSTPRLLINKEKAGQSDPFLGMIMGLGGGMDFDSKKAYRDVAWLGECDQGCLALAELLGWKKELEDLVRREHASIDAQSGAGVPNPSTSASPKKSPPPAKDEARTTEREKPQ
The experiment in a line: SIRT2 Fluorimetric Drug Discovery Kit, Sirt2 activation. Format: biochemical. The note with it: Example 2, Table 6.

Data set [2] relates to 5′-AMP-activated protein kinase (AMPK). The experiment in a line: Western blot analysis of AMPK phosphorylation in NHEK. The note with it: for AMPK phosphorylation [% Control] / Ratio P-AMPK/GAPDH / P-AMPK: 1000 μM; for P-AMPK: 48 h. Format: cell-based, human. A general note: Immunoblotting shows a protein as a band on a membrane.
Data set [3] relates to normal human dermal fibroblasts (NHDF). The data set can be described thus: Resazurin based cytotoxicity assay in NHDF. Format: cell-based. Particulars: 24 h and 48 h; 0.03 μM to 200 μM. As for the experimental part: The effect of compound (I-1) on mitochondria biosynthesis was investigated in normal human dermal fibroblasts (NHDF). NHDF were obtained from PromoCell (Lot No. 006151; donor; from eyelid skin) and cultivated in Fibroblast Growth Medium (PromoCell; Cat. No. C-023020) supplemented with Supplement Mix (PromoCell; Cat. No. C-039215) at 37° C./5% CO2. NHDF were seeded in flat-bottom 96-well plates (5000 cells/well) and incubated in said medium for 24 h or 48 h, respectively, with the compounds present in concentrations ranging from 0.03 μM to 200 μM. Mitochondria content was analyzed using the Mito-ID® Green Detection Kit for fluorescence microscopy (Enzo Life Sciences; Cat. No. ENZ-51055-K500). Fluorometric analysis was done using a Spectramax plate reader (Molecular Devices) and following the manufacturer's protocol. Cytotoxicity was determined in parallel by fluorometric readout using the Resazurin Based In Vitro Toxicology Assay Kit (Sigma Aldrich, Cat. No. TOX-8), and following the manufacturer's protocol.
(In general: Resazurin is reduced to fluorescent resorufin, in cell work by metabolically active cells.)

Another data set deals with T3, Sirt3 (Homo sapiens, UniProt Q9NTG7).
T3 construct: purchased BioMol, Hamburg, Germany
T3 sequence (Q9NTG7 1-399): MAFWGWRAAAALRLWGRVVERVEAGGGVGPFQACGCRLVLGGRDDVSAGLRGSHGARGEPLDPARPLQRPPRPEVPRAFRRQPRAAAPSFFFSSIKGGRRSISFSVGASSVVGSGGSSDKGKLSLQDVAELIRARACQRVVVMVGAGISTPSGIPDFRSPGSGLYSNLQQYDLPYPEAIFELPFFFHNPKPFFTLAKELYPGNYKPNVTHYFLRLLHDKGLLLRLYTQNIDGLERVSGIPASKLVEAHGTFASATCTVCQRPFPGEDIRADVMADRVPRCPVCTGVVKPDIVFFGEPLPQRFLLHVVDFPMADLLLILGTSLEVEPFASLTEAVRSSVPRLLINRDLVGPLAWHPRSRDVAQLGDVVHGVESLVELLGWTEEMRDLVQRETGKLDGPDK
The experiment in a line: SIRT3 Fluorimetric Drug Discovery Kit, Sirt3 activation. It is filed as biochemical. Particulars: Example 2, Table 6.

The mark [4] stands for this setting: Example 1, concentration that gave 3-times the basal response of the enzyme.

Structures are written as SMILES. Marks after values point to notes of the source that are not given here.

Take `O=C(O)c1c(O)cccc1/C=C/c1ccc(O)cc1` [(I-2)]: the “Fold increase in sirtl activity versus control” value (from here on “Fold increase”) at human sirtuin-1 (Sirt1) is given as 4.8.
On to `COc1cc(/C=C/c2cccc(O)c2C(=O)O)cc(OC)c1O` [(I-4)], for which the “Fold increase” value at human sirtuin-1 (Sirt1) came to 2.0.
On the same count and under the same terms, the result for `O=C(O)c1c(O)cccc1/C=C/c1ccc(OC2OC(CO)C(O)C(O)C2O)cc1` (centres unmarked) [(I-5)] reads 2.7.
Broadly, the viability is a read-out of living cells in per cent, often relative to untreated cells. Higher therefore signals better survival. On to `Oc1ccc(/C=C/c2cc(O)cc(O)c2)cc1` [trans-resveratrol], for which the EC300 at human sirtuin-1 (Sirt1) (setting [4]) was more than 30 µM; on human sirtuin-1 (Sirt1) (Example 2, Table 6, Sirt1), more than 30 µM; at Sirt2 it was more than 30 µM. In addition, the viability amounted to 2% in data set [1] (100 μM) and 43% in data set [1] (300 μM).
With `COC(=O)c1c(/C=C/c2ccc(OC)cc2)cccc1OC` [(I-3)], the “Fold increase” value at human sirtuin-1 (Sirt1) came out at 1.1.
With `NC(=O)c1ncn([C@@H]2O[C@H](CO)[C@@H](O)[C@H]2O)c1N` [AICAR, 5-Amino-1-βD-ribofuranosyl-imidazole-4-carboxamide], in data set [2] (Experiment 1, Membrane 1), the “AMPK phosphorylation [% Control]” value was 482 % Control, the “Ratio P-AMPK/GAPDH” value is given as 2.05 and the P-AMPK was 1060 AU/mm^2. In addition, in data set [2] (Experiment 2), the “AMPK phosphorylation [% Control]” value is recorded as 506 % Control, the “Ratio P-AMPK/GAPDH” value came to 0.572 and the P-AMPK was determined as 1377449 AU/mm^2.
Regarding `CCOC(=O)c1c(O)cccc1/C=C/c1ccc(OCC)cc1` [(I-1)], the “cytotoxicity / cell viability in NHDF” value in data set [3] is on record as “no cytotoxicity or loss of cell viability”. In addition, in data set [2] (NHEK, 30 μM), the “AMPK phosphorylation” value is “significantly enhanced”. The “Fold increase” value at human sirtuin-1 (Sirt1) is 23.9. Also, the EC300 on human sirtuin-1 (Sirt1) (setting [4]) was 2.0 µM; on human sirtuin-1 (Sirt1) (Example 2, Table 6, Sirt1), 12.9 µM; at Sirt3 it was >30* μM; on Sirt2 it was 4.9 µM. In addition, the “cytotoxicity against NHEK” value in data set [1] is “no cytotoxicity”.
